A melting point compilation (Tetko et al.; mined from patent text by program, amines drawn as free bases though some values may be those of a salt)

melting point [°C] | SMILES
60 to 63 | COc1ccc(CC#N)c(C)c1OC
152 to 153 | Fc1c(F)c(C(F)(F)F)c(F)c(F)c1Nc1nc(Cl)nc(Cl)c1Cl
47 | CSC(=S)NCc1c(Cl)cccc1Cl
198 to 200 | CC(C)(C)OC(=O)N[C@H](Cc1ccc(C(F)(F)F)cc1)[C@@H](O)c1ccncc1 (racemic)
112 to 113 | Brc1nccc2ncccc12
227 to 229 | CNC1([C@@H]2CCN(c3ccc4c(=O)c(C(=O)O)cn5c4c3OC[C@@H]5C)C2)CC1
221 to 222 | Cc1ccc(-c2ccc(-c3ccc(C)cc3)n2-c2ccc(O)cc2)cc1
102 to 104 | Cc1cc2c(nc1C(O)c1cccs1)CCCCC2 (stereo unspecified)
127 to 130 | COc1ccc(-c2cc(CO)c(=O)n(Cc3ccc(F)cc3)n2)cc1F
91 to 93 | CCC(=CC(CSc1nccn1C)=NO)C(C)[N+](=O)[O-] (stereo unspecified)
131 to 134 | CN(C(=O)N(CF)CF)c1nc2ccccc2s1
138 to 139 | COC(=O)C1=C(C)NC(C)=C(C(=O)OC/C=C/c2ccc(O)cc2)C1c1cccc([N+](=O)[O-])c1 (stereo unspecified)
219 to 229 | COC1C(C)OC(OC2CC(C)(O)C(C(=O)O)c3cc4c(c(O)c32)C(=O)c2c(O)cc3c(c2C4=O)OC2OC3(C)C(O)C(N(C)C)C2O)C(OC)C1(C)OC (stereo unspecified)
136 to 138 | CCOC(=O)c1cc2ccc(Oc3ccc(N)cc3)cc2oc1=O
141 to 142 | CNC(=O)CCC(=NOCc1ccc(OCc2nc(-c3ccccc3)oc2C)cc1)c1ccccc1
204 to 205 | COC(=O)/C(=N\O)c1csc(NC(c2ccccc2)(c2ccccc2)c2ccccc2)n1
47 to 49 | CCCCCCCc1c(C)[nH]c(C(=O)OCC)c1C
148 to 151 | COC(=O)C=Cc1cc(-n2nc(C)n(C(F)F)c2=O)c(Cl)cc1Cl

melting point [°C] | SMILES
167 to 168 | COC(=O)c1c(C(=O)OC)c2sc3ccccc3n2c1-c1ccc(OC)cc1
64 to 66 | Clc1ccccc1Cc1nc2cccc(CCc3nccs3)c2o1
198 to 199 | COCCOc1cc(N(C)S(=O)(=O)c2cccs2)c2[nH]c(C(=O)O)cc2c1
128 | CNCc1cn(S(=O)(=O)c2ccccc2)c(-c2cccnc2F)c1F
220 to 222 | Cc1c(Nc2ccc(Cl)cc2C(=O)O)cccc1C(F)(F)F
98 to 99 | CC(Oc1ccc(Cl)cc1)c1ccnn2cnnc12 (stereo unspecified)
180 to 182 | CCn1nc2c(n1)C(N1CCN(C)CC1)=Nc1cc(Cl)ccc1N2
90 | O=C(O)CC[C@H](NCC(O)C(O)C(O)C(O)C(=O)O)C(=O)O (stereo partly specified)
166 to 167 | NC(=NCCCc1c[nH]cn1)N(CCN(Cc1ccc(Cl)cc1)c1ccccn1)C(=O)c1ccccc1
195 to 197 | CCn1ncc2c3onc(-c4ccc(Cl)cc4)c3cnc21
99 to 100 | COC1CCC(OC)C2=C1C=CC(=O)C2 (stereo unspecified)
74 | CC(=O)n1c(=O)sc2c(Cl)cccc21
79.5 to 88.1 | COC(=O)/C=C/C1=C(C)C2(CCC1(C)C)SCCS2
198 to 200 | O=c1c2cc(F)c(N3CCCC3)cc2n(CC2CC2)c(=O)n1OCc1ccccc1
84 to 86 | CCCCCCCCNC(=O)N1CCC(S(=O)(=O)c2ccc(CCNC[C@H](O)COc3ccc4c(c3)OCO4)cc2)CC1
72 to 73 | CN(CCOc1ccc(CON=C(CCC(=O)O)c2ccccc2)cc1)c1ncccn1
145 to 146 | O=C1NC(=O)C(c2ccco2)N1 (stereo unspecified)

SMILES | melting point [°C]
COc1ccc(-c2cc(NC(=O)Nc3ccc(N(CCCl)CCCl)cc3)c3cc(OC)ccc3n2)cc1 | 112 to 113
Cc1c(C(N)=O)nnn1Cc1ccccc1Cl | 181 to 183
NC1CC2CCCC(C1)N2Cc1ccccc1 (stereo unspecified) | 134
CCCNC(=O)N1N=C(c2ccc([N+](=O)[O-])cc2)c2cc(Cl)ccc2CC1C (stereo unspecified) | 186 to 187
Nc1cc(C(Cl)(Cl)Cl)ccn1 | 114
Nc1nc(N)nc(C23CCN(CC2)CC3)n1 | > 245
